Data: patent US10167262B2, “Herbicidal substituted 3-arylpyrazoles” (FMC CORPORATION, priority 2014, dated 2019)

Columns and labels:
Test in all cases: Test E pre-/postemergence greenhouse test, plant response rating 0-100
Format in all cases: in vivo
[1] = test system: Brazilian crabgrass (Digitaria horizontalis); details: Digitaria horizontalis, post-emergence, Postemergence, scale 0 to 100, read-out: Plant response rating, Crabgrass, Brazil
In short: (§1)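 Preemergence application to planted silt loam and postemergence application to 2–18 cm seedlings are run simultaneously. Evaluation is visual against controls after 14 to 21 days, scored from 0 (no effect) to 100 (complete control).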

[2] = test system: Italian ryegrass (Lolium multiflorum); details: scale 0 to 100; for Ryegrass, Italian plant response rating: Preemergence
In short: as §1

[3] = test system: arrowleaf sida (Sida rhombifolia); details: for Arrowleaf Sida plant response rating: Preemergence
In short: as §1

corn (Zea mays) = details: scale 0 to 100; for Corn plant response rating: Preemergence
In short: as §1

[4] = test system: dayflower (Virginia (VA) dayflower, Commelina virginica); details: scale 0 to 100; for Dayflower, VA plant response rating: Preemergence
In short: as §1

[5] = test system: fall panicum (Panicum dichotomiflorum); details: scale 0 to 100; for Panicum, Fall plant response rating: Preemergence
In short: as §1

O=C(c1ccccc1)c1cn(CO)nc1-c1cc(Cl)cc(Cl)c1 [Compound 15, [3-(3,5-dichlorophenyl)-1-(hydroxymethyl)-1H-pyrazol-4-yl]phenylmethanone]
25: Arrowleaf Sida plant response rating ([3]; 31 g ai/ha, scale 0 to 100)
30: Arrowleaf Sida plant response rating ([3]; 62 g ai/ha, scale 0 to 100)
35%: pest or weed control at 500 g/ha ([5]; Panicum dichotomiflorum, post-emergence, Postemergence, 500 g ai/ha)
98: Arrowleaf Sida plant response rating ([3]; 500 g ai/ha, scale 0 to 100)
90: Arrowleaf Sida plant response rating ([3]; 125 g ai/ha, scale 0 to 100)
90%: pest or weed control at 62 g/ha ([3]; Sida rhombifolia, post-emergence, Postemergence, 62 g ai/ha, scale 0 to 100)
98%: pest or weed control at 31 g/ha ([3]; Sida rhombifolia, post-emergence, Postemergence, 31 g ai/ha, scale 0 to 100) | pest or weed control at 125 g/ha ([3]; Sida rhombifolia, post-emergence, Postemergence, 125 g ai/ha, scale 0 to 100) | pest or weed control at 250 g/ha ([3]; Sida rhombifolia, post-emergence, Postemergence, 250 g ai/ha, scale 0 to 100) | pest or weed control at 500 g/ha ([3]; Sida rhombifolia, post-emergence, Postemergence, 500 g ai/ha, scale 0 to 100 (0 no effect, 100 complete control))
0%: pest or weed control at 31 g/ha ([1]; 31 g ai/ha) | pest or weed control at 62 g/ha ([1]; 62 g ai/ha) | pest or weed control at 125 g/ha ([1]; 125 g ai/ha) | pest or weed control at 250 g/ha ([1]; 250 g ai/ha) | pest or weed control at 500 g/ha ([1]; 500 g ai/ha) | pest or weed control at 31 g/ha ([2]; Lolium multiflorum, post-emergence, Postemergence, 31 g ai/ha) | pest or weed control at 62 g/ha ([2]; Lolium multiflorum, post-emergence, Postemergence, 62 g ai/ha) | pest or weed control at 125 g/ha ([2]; Lolium multiflorum, post-emergence, Postemergence, 125 g ai/ha) | pest or weed control at 250 g/ha ([2]; Lolium multiflorum, post-emergence, Postemergence, 250 g ai/ha) | pest or weed control at 500 g/ha ([2]; Lolium multiflorum, post-emergence, Postemergence, 500 g ai/ha) | Corn plant response rating (crop injury, 0 = no effect, 100 = complete kill) at 31 g/ha (corn (Zea mays); Zea mays, post-emergence, Postemergence, 31 g ai/ha) | Corn plant response rating (crop injury, 0 = no effect, 100 = complete kill) at 62 g/ha (corn (Zea mays); Zea mays, post-emergence, Postemergence, 62 g ai/ha) | Corn plant response rating (crop injury, 0 = no effect, 100 = complete kill) at 125 g/ha (corn (Zea mays); Zea mays, post-emergence, Postemergence, 125 g ai/ha) | Corn plant response rating (crop injury, 0 = no effect, 100 = complete kill) at 250 g/ha (corn (Zea mays); Zea mays, post-emergence, Postemergence, 250 g ai/ha) | Corn plant response rating (crop injury, 0 = no effect, 100 = complete kill) at 500 g/ha (corn (Zea mays); Zea mays, post-emergence, Postemergence, 500 g ai/ha) | pest or weed control at 31 g/ha ([4]; Commelina virginica, post-emergence, Postemergence, 31 g ai/ha) | pest or weed control at 62 g/ha ([4]; Commelina virginica, post-emergence, Postemergence, 62 g ai/ha) | pest or weed control at 125 g/ha ([4]; Commelina virginica, post-emergence, Postemergence, 125 g ai/ha) | pest or weed control at 250 g/ha ([4]; Commelina virginica, post-emergence, Postemergence, 250 g ai/ha) | pest or weed control at 500 g/ha ([4]; Commelina virginica, post-emergence, Postemergence, 500 g ai/ha) | pest or weed control at 31 g/ha ([5]; Panicum dichotomiflorum, post-emergence, Postemergence, 31 g ai/ha) | pest or weed control at 62 g/ha ([5]; Panicum dichotomiflorum, post-emergence, Postemergence, 62 g ai/ha) | pest or weed control at 125 g/ha ([5]; Panicum dichotomiflorum, post-emergence, Postemergence, 125 g ai/ha) | pest or weed control at 250 g/ha ([5]; Panicum dichotomiflorum, post-emergence, Postemergence, 250 g ai/ha)
100: Arrowleaf Sida plant response rating ([3]; 250 g ai/ha, scale 0 to 100)
0: Ryegrass, Italian plant response rating ([2]; 31 g ai/ha) | Ryegrass, Italian plant response rating ([2]; 62 g ai/ha) | Ryegrass, Italian plant response rating ([2]; 125 g ai/ha) | Ryegrass, Italian plant response rating ([2]; 250 g ai/ha) | Ryegrass, Italian plant response rating ([2]; 500 g ai/ha) | Corn plant response rating (corn (Zea mays); 31 g ai/ha) | Corn plant response rating (corn (Zea mays); 62 g ai/ha) | Corn plant response rating (corn (Zea mays); 125 g ai/ha) | Corn plant response rating (corn (Zea mays); 250 g ai/ha) | Corn plant response rating (corn (Zea mays); 500 g ai/ha) | Dayflower, VA plant response rating ([4]; 31 g ai/ha) | Dayflower, VA plant response rating ([4]; 62 g ai/ha) | Dayflower, VA plant response rating ([4]; 125 g ai/ha) | Dayflower, VA plant response rating ([4]; 500 g ai/ha) | Panicum, Fall plant response rating ([5]; 31 g ai/ha) | Panicum, Fall plant response rating ([5]; 62 g ai/ha) | Panicum, Fall plant response rating ([5]; 125 g ai/ha) | Panicum, Fall plant response rating ([5]; 250 g ai/ha)
